According to ChEMBL document CHEMBL3769371, “1-[(2E)-3-Phenylprop-2-enoyl]-1H-benzimidazoles as anticancer agents: synthesis, crystal structure analysis and binding studies of the most potent anticancer molecule with serum albumin” (Medchemcomm, 2015):

Legend:
[1] = molecular target: T1, Albumin (Homo sapiens, UniProt P02768); assay: Binding affinity to human serum albumin at 0.25 uM at 303 K by fluorescence microscopic analysis in the presence of K+; format: ADME; settings: isolated protein
[2] = system: NCI-H322M; assay: Cytotoxicity against human NCI-H322M cells after 48 hrs by SRB assay; format: functional
[3] = system: MCF7; assay: Cytotoxicity against human MCF7 cells after 48 hrs by SRB assay; format: functional; settings: MCF7, 48 h
[4] = Antiproliferative activity against human PC3 cells at 10'5 M; format: functional, PC-3
[5] = Cytotoxicity against human SNB75 cells assessed as cell growth at 10^-5 M after 48 hrs by SRB assay; format: functional; settings: SNB-75, 48 h, read-out: Activity
[6] = system: A549; assay: Cytotoxicity against human A549 cells assessed as cell growth at 10^-5 M after 48 hrs by SRB assay; format: functional; settings: A549, 48 h, read-out: Activity
[7] = system: NCI-H460; assay: Antiproliferative activity against human NCI-H460 cells at 10'5 M; format: functional
[8] = Cytotoxicity against human SW620 cells assessed as cell growth at 10^-5 M after 48 hrs by SRB assay; format: functional; settings: SW-620, 48 h, read-out: Activity
[9] = Cytotoxicity against human MOLT4 cells assessed as cell growth at 10^-5 M after 48 hrs by SRB assay; format: functional; settings: MOLT-4, 48 h, read-out: Activity
[10] = system: K562; assay: Antiproliferative activity against human K562 cells at 10'5 M; format: functional
[11] = system: K562; assay: Cytotoxicity against human K562 cells after 48 hrs by SRB assay; format: functional; settings: K562, 48 h
[12] = system: SK-MEL-2; assay: Cytotoxicity against human SK-MEL-2 cells assessed as cell growth at 10^-5 M after 48 hrs by SRB assay; format: functional; settings: SK-MEL-2, 48 h, read-out: Activity
[13] = system: NCI-H460; assay: Cytotoxicity against human NCI-H460 cells assessed as cell growth at 10^-5 M after 48 hrs by SRB assay; format: functional; settings: NCI-H460, 48 h, read-out: Activity
[14] = molecular target: T1, Albumin; assay: Binding affinity to human serum albumin at 0.25 to 2 uM at 303 K by fluorescence microscopic analysis in the absence of site probes; format: ADME; settings: isolated protein
[15] = Cytotoxicity against human OVCAR5 cells after 48 hrs by SRB assay; format: functional; settings: OVCAR-5, 48 h, read-out: LC50 (the source's name)
[16] = system: Malme-3M; assay: Cytotoxicity against human MALME-3M cells assessed as cell growth at 10^-5 M after 48 hrs by SRB assay; format: functional; settings: read-out: Activity
[17] = Cytotoxicity against human OVCAR4 cells assessed as cell growth at 10^-5 M after 48 hrs by SRB assay; format: functional; settings: OVCAR-4, 48 h, read-out: Activity
[18] = system: K562; assay: Cytotoxicity against human K562 cells assessed as cell growth at 10^-5 M after 48 hrs by SRB assay; format: functional; settings: K562, 48 h, read-out: Activity
[19] = Antiproliferative activity against human HCC2998 cells at 10'5 M; format: functional, HCC 2998
[20] = system: SK-MEL-5; assay: Cytotoxicity against human SK-MEL-5 cells after 48 hrs by SRB assay; format: functional; settings: SK-MEL-5, 48 h
[21] = Cytotoxicity against human SNB19 cells assessed as cell growth at 10^-5 M after 48 hrs by SRB assay; format: functional; settings: SNB-19, 48 h, read-out: Activity
[22] = molecular target: T1, Albumin; assay: Binding affinity to human serum albumin at 0.25 to 2 uM at 303 K by fluorescence microscopic analysis in the presence of ibuprofen; format: ADME; settings: isolated protein
[23] = Cytotoxicity against human UO31 cells after 48 hrs by SRB assay; format: functional; settings: UO-31, 48 h
[24] = system: KM12; assay: Cytotoxicity against human KM12 cells assessed as cell growth at 10^-5 M after 48 hrs by SRB assay; format: functional; settings: KM12, 48 h, read-out: Activity
[25] = Cytotoxicity against human HCC2998 cells assessed as cell growth at 10^-5 M after 48 hrs by SRB assay; format: functional; settings: HCC 2998, 48 h, read-out: Activity
[26] = system: NCI-H460; assay: Cytotoxicity against human NCI-H460 cells after 48 hrs by SRB assay; format: functional; settings: NCI-H460, 48 h
[27] = Cytotoxicity against human DU145 cells after 48 hrs by SRB assay; format: functional; settings: DU-145, 48 h
[28] = system: Malme-3M; assay: Cytotoxicity against human MALME-3M cells after 48 hrs by SRB assay; format: functional
[29] = system: HT-29; assay: Cytotoxicity against human HT-29 cells after 48 hrs by SRB assay; format: functional; settings: HT-29, 48 h
[30] = system: CCRF-CEM; assay: Cytotoxicity against human CCRF-CEM cells assessed as cell growth at 10^-5 M after 48 hrs by SRB assay; format: functional; settings: read-out: Activity
[31] = Cytotoxicity against human UACC257 cells after 48 hrs by SRB assay; format: functional; settings: UACC-257, 48 h
[32] = Cytotoxicity against human NCI-ADR-RES cells after 48 hrs by SRB assay; format: functional
[33] = read-out: LC50 (the source's name)

T1 sequence (P02768 whole entry): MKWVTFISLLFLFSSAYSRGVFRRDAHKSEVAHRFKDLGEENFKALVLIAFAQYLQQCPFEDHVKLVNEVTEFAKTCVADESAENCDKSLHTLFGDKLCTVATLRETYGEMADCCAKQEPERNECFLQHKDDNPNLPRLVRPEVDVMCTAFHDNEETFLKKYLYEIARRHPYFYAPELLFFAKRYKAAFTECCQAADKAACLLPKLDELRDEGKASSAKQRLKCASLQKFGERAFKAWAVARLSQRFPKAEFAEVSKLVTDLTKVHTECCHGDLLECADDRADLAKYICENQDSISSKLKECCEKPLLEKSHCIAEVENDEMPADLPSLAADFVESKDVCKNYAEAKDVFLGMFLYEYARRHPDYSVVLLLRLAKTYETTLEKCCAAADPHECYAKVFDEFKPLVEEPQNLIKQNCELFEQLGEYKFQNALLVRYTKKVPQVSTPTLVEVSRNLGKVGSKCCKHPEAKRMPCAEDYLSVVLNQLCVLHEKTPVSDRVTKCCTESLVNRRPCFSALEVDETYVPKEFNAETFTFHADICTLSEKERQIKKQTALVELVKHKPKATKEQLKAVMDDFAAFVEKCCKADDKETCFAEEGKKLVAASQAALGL

Question: For O=C(/C=C/c1ccccc1)n1c(-c2ccc(Cl)cc2)nc2ccccc21, which K [1] is on record?
Answer: 4.21 ×10³ /mol

Question: What about the GI50 [2] of the same compound?
Answer: 1.91 µM

Question: What about the TGI [2] of the same compound?
Answer: 4.89 µM

Question: And the CC50 [2, 33]?
Answer: 20 µM

Question: What about the GI50 [3] of the same compound?
Answer: 1.01 µM

Question: What about the TGI [3] of the same compound?
Answer: 9.92 µM

Question: And the CC50 [3, 33]?
Answer: 55.5 µM

Question: And the “growth inhibition (GI)” value [4]?
Answer: 93.91%

Question: And the growth at 10 µM [5]?
Answer: 18.1%

Question: And the growth at 10 µM [6]?
Answer: -4.99%

Question: And the “growth inhibition (GI)” value [7]?
Answer: 99.46%

Question: What about the growth at 10 µM [8] of the same compound?
Answer: -55.1%

Question: And the growth at 10 µM [9]?
Answer: 21.9%

Question: And the “growth inhibition (GI)” value [10]?
Answer: 60.22%

Question: What about the GI50 [11] of the same compound?
Answer: 2.09 µM

Question: What about the TGI [11] of the same compound?
Answer: 11.8 µM

Question: And the CC50 [11, 33]?
Answer: > 100 µM

Question: What about the growth at 10 µM [12] of the same compound?
Answer: -36%

Question: And the growth at 10 µM [13]?
Answer: 0.54%

Question: And the K [14]?
Answer: 5.68 ×10³ /mol

Question: And the CC50 [15]?
Answer: 49.7 µM

Question: And the growth at 10 µM [16]?
Answer: 15.9%

Question: What about the growth at 10 µM [17] of the same compound?
Answer: 30%

Question: What about the growth at 10 µM [18] of the same compound?
Answer: 39.8%

Question: And the “growth inhibition (GI)” value [19]?
Answer: 94.92%

Question: And the GI50 [20]?
Answer: 1.49 µM

Question: And the TGI [20]?
Answer: 3.22 µM

Question: What about the CC50 [20, 33] of the same compound?
Answer: 6.92 µM

Question: What about the growth at 10 µM [21] of the same compound?
Answer: 41.1%

Question: What about the K [22] of the same compound?
Answer: 5.63 ×10³ /M

Question: And the GI50 [23]?
Answer: 1.1 µM

Question: And the TGI [23]?
Answer: 3.55 µM

Question: What about the CC50 [23, 33] of the same compound?
Answer: 12.9 µM

Question: What about the growth at 10 µM [24] of the same compound?
Answer: -62.9%

Question: And the growth at 10 µM [25]?
Answer: 5.08%

Question: What about the GI50 [26] of the same compound?
Answer: 1.96 µM

Question: And the TGI [26]?
Answer: 6.52 µM

Question: And the CC50 [26, 33]?
Answer: 25.5 µM

Question: What about the GI50 [27] of the same compound?
Answer: 1.8 µM

Question: What about the TGI [27] of the same compound?
Answer: 4.93 µM

Question: What about the CC50 [27, 33] of the same compound?
Answer: 17 µM

Question: And the GI50 [28]?
Answer: 0.59 µM

Question: What about the TGI [28] of the same compound?
Answer: 1.91 µM

Question: What about the CC50 [28, 33] of the same compound?
Answer: 4.77 µM

Question: And the GI50 [29]?
Answer: 1.34 µM

Question: And the TGI [29]?
Answer: 7.05 µM

Question: What about the CC50 [29, 33] of the same compound?
Answer: 29.8 µM

Question: What about the growth at 10 µM [30] of the same compound?
Answer: -23.9%

Question: What about the GI50 [31] of the same compound?
Answer: 1.64 µM

Question: And the TGI [31]?
Answer: 3.12 µM

Question: What about the CC50 [31, 33] of the same compound?
Answer: 5.93 µM

Question: What about the GI50 [32] of the same compound?
Answer: 0.75 µM

Question: What about the TGI [32] of the same compound?
Answer: 10.3 µM

Question: What about the CC50 [32, 33] of the same compound?
Answer: 62.1 µM
